Patent US9629822B2, “Flavonoid based antiviral targets” (UNIVERSITY OF CENTRAL FLORIDA RESEARCH FOUNDATION, INC., priority 2012, dated 2017)
Like-named read-outs stand apart in the source and are kept apart here.

Key:
US28 receptor = molecular target: T1, US28 receptor (Human cytomegalovirus, UniProt P69332); assay: PathDetect trans Elk1 luciferase reporter gene assay in US28-transfected 293T HEK cells; type: cell-based, Human Cytomegalovirus (HCMV); conditions: for type of activity on the US28 receptor (agonist / inverse agonist / none), in words: Elk1 reporter, US28-transfected HEK cells
T1 construct: expressed in transfected cells; host or cells: HEK 293T cells, transiently transfected
T1 sequence (P69332 whole entry): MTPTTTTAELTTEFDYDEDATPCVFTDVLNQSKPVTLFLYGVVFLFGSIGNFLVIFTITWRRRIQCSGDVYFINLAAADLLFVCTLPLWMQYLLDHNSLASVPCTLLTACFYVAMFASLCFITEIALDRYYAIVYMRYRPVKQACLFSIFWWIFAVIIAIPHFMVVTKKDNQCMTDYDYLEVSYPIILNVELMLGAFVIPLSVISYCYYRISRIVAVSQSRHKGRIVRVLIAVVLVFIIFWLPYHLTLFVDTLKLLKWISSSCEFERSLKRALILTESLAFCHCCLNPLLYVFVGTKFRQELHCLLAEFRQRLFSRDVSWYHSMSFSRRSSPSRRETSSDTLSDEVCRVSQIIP
How it was run: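 HEK293T cells transiently transfected with Elk1, Luc and US28 vector (empty pcDNA3 for mock) were dosed with compounds in DMEM/1% FBS with 1% DMSO for 20-24 h at 37° C. Bright-Glo luminescence decrease was read; EC50 is halfway between maximal response and no-compound control, by non-linear regression.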

CHO cells = assay: CHO cell toxicity, MTS assay, 48 h; type: cell-based, Chinese hamster; conditions: Cricetulus griseus, CHO
How it was run: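 CHO cells plated at 10,000 cells/mL, incubated overnight, then exposed to drug (final DMSO <1%) for 48 h at 37 °C, 5% CO2, in triplicate. MTS added for a further 4 h; absorbance read at 490 nm. IC50 taken from relative A490 versus drug concentration.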

[1] = TZMbI assay for cell safety (cell viability and growth, CytoTox Glo); conditions: human, TZMbI cells, read-out: % decrease in viability compared to 0.1% DMSO vehicle based on viable cell luminescence
Experimental: Assays were performed below in accordance with the procedures set forth in The Journal of Immunology, 2006, 176, pp. 6900-905; AIDS Research and Human Retroviruses, 2004, 20:11, pp. 1157-1665.^32,33 TZMbI assays for cell safety were performed to identify potential anti-viral compounds. TZMbI assays for cell safety were performed to identify potential anti-viral compounds per the methods.

HIV-1 BaL = assay: Anti-HIV assay (luciferase, HIV-1 BaL infection); type: cell-based
How it was run: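 Cells infected with HIV-1 BaL at 2 ng/mL p24 (MOI approx 0.02) in compound presence. Infection read out by luciferase.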

[2] = 293T HEK cells transiently expressing US28, Elk1 reporter, NE = no effect when tested at 10 μM of compound
[3] = 37° C., MTS reagent, read-out: CHO 48 h IC50 value
[4] = 10 μM, Experiment 1B, 2 ng/mL p24 HIV-1 BaL
[5] = Human immunodeficiency virus 1, BAL, 1.25 μM, Experiment 2B
[6] = Human immunodeficiency virus 1, BAL, 2.5 μM, Experiment 2B
[7] = Human immunodeficiency virus 1, BAL, 5 μM, Experiment 2B
[8] = Human immunodeficiency virus 1, BAL, 10 μM, Experiment 1B, 2 ng/mL p24 HIV-1 BaL
[9] = Human immunodeficiency virus 1, BAL, 10 μM, Experiment 2B
[10] = Human immunodeficiency virus 1, BAL, 20 μM, Experiment 2B
[11] = EC50 (μM), 293T HEK cells transiently expressing US28, Elk1 reporter, NE = no effect when tested at 10 μM of compound
[12] = Human immunodeficiency virus 1, BAL, 40 μM, Experiment 2B
[13] = Human immunodeficiency virus 1, BAL, 80 μM, Experiment 2B

Compound | IC50 (CHO cells; [3]) [µM] | cytotoxicity at 1.25 μM ([1]; Experiment 2A) [%] | cytotoxicity at 2.5 μM ([1]; Experiment 2A) [%] | cytotoxicity at 5 μM ([1]; Experiment 2A) [%] | cytotoxicity at 10 μM ([1]; Experiment 1A) [%] | cytotoxicity at 10 μM ([1]; Experiment 2A) [%] | cytotoxicity at 20 μM ([1]; Experiment 2A) [%] | RLU (relative luciferase units) (HIV-1 BaL; 1.25 μM, Experiment 2B) [RLU] | RLU (relative luciferase units) (HIV-1 BaL; 2.5 μM, Experiment 2B) [RLU] | RLU (relative luciferase units) (HIV-1 BaL; 5 μM, Experiment 2B) [RLU] | RLU (relative luciferase units) (HIV-1 BaL; [4]) [RLU] | RLU (relative luciferase units) (HIV-1 BaL; 10 μM, Experiment 2B) [RLU] | RLU (relative luciferase units) (HIV-1 BaL; 20 μM, Experiment 2B) [RLU] | inhibition at 1.25 µM (HIV-1 BaL; [5]) [%] | inhibition at 2.5 µM (HIV-1 BaL; [6]) [%] | inhibition at 5 µM (HIV-1 BaL; [7]) [%] | inhibition at 10 µM (HIV-1 BaL; [8]) [%] | inhibition at 10 µM (HIV-1 BaL; [9]) [%] | inhibition at 20 µM (HIV-1 BaL; [10]) [%] | EC50 (US28 receptor; [11]) [µM] | further results
COc1ccc(Br)cc1/C=C/C(=O)c1c(O)cccc1OCc1ccccc1 [Compound 8l, (E)-1-(2-(Benzyloxy)-6-hydroxyphenyl)-3-(5-bromo-2-methoxyphenyl)prop-2-en-1-one] | 8.1 ± 1 | -2.83 | -0.43 | 2.2 | 29.8 | 28.7 | 55.2 | 262.26 | 215.14 | 125.95 | 57.3 | 23.18 | 16.87 | -0.55 | 17.2 | 54.4 | 93.9 | 91.5 | 94.7 | – | EC50 (μM) (US28 receptor; [2]): Toxic; IC50 (HIV-1 BaL; Human immunodeficiency virus 1, BAL, inferred from 54.36% inhibition at 5 μM): < 5 µM
COc1ccc(Br)cc1/C=C/C(=O)c1ccc2ccccc2c1O [Compound 8m, (E)-3-(5-bromo-2-methoxyphenyl)-1-(1-hydroxynaphthalen-2-yl)prop-2-en-1-one] | 15.6 ± 1 | 10.3 | 17.9 | 10.7 | 20.3 | 38.2 | 90 | 324.10 | 283.48 | 251.02 | 437.6 | 170.42 | 160.21 | -24.3 | -9.08 | 9.04 | 53.3 | 37.7 | 49.9 | – | EC50 (US28 receptor; pEC50 ± SEM, 293T HEK cells transiently expressing US28, Elk1 reporter): 2.88 µM
COc1ccccc1-c1oc2ccccc2c(=O)c1O [Compound 9a, 3-Hydroxy-2-(2-methoxyphenyl)-4H-chromen-4-one] | > 100 | – | – | -3.31 | – | -24.9 | -21.6 | – | – | 16.52 | – | 16.51 | 36.83 | – | – | -3.31 | – | -24.9 | -21.9 | 4.6 | type of activity on the US28 receptor (agonist / inverse agonist / none), in words (US28 receptor): inhibited US28 receptor constitutive activity; Efficacy(%) (US28 receptor; maximum intrinsic activity from dose-response curve, negative = inverse agonism): −19%; Emax (US28 receptor; read-out: Efficacy(%), maximum intrinsic activity from dose-response curve, negative = inverse agonism): -19%; cytotoxicity at 40 μM ([1]; Experiment 2A): -25.4%; cytotoxicity at 80 μM ([1]; Experiment 2A): -7.86%; RLU (relative luciferase units) (HIV-1 BaL; 40 μM, Experiment 2B): 65.50 RLU; RLU (relative luciferase units) (HIV-1 BaL; 80 μM, Experiment 2B): 59.24 RLU; inhibition at 40 µM (HIV-1 BaL; [12]): -25.4%; inhibition at 80 µM (HIV-1 BaL; [13]): -7.86%
COc1ccc(Br)cc1-c1oc2ccccc2c(=O)c1O [Compound 9b, 2-(5-Bromo-2-methoxyphenyl)-3-hydroxy-4H-chromen-4-one] | 88.5 ± 10.1 | – | – | -7.08 | -2.1 | -19 | -25.9 | – | – | 12.99 | 736.7 | 23.85 | 32.82 | – | – | -7.08 | 21.3 | -19 | -25.9 | > 10 | EC50 (US28 receptor; [2]): > 10 µM; type of activity on the US28 receptor (agonist / inverse agonist / none), in words (US28 receptor): did not show any activity; cytotoxicity at 40 μM ([1]; Experiment 2A): -29.8%; cytotoxicity at 80 μM ([1]; Experiment 2A): 13.3%; RLU (relative luciferase units) (HIV-1 BaL; 40 μM, Experiment 2B): 47.61 RLU; RLU (relative luciferase units) (HIV-1 BaL; 80 μM, Experiment 2B): 73.47 RLU; inhibition at 40 µM (HIV-1 BaL; [12]): -29.8%; inhibition at 80 µM (HIV-1 BaL; [13]): 13.3%
COc1ccc(Cl)cc1-c1oc2ccccc2c(=O)c1O [Compound 9h, 2-(5-chloro-2-methoxyphenyl)-3-hydroxy-4H-chromen-4-one] | 25 ± 2.2 | -8.02 | -10.4 | -13.9 | 23.6 | 1.57 | 7.83 | 1.61 | 16.44 | 18.32 | 367.6 | 49.04 | 20.14 | -8.02 | -10.4 | -13.9 | 60.7 | 1.57 | 7.83 | 1.32 | type of activity on the US28 receptor (agonist / inverse agonist / none), in words (US28 receptor): inverse agonist
COc1ccccc1-c1cc(=O)c2c(O)cccc2o1 [Compound 12a, 5-Hydroxy-2-(2-methoxyphenyl)-4H-chromen-4-one] | – | 6.38 | 41.7 | 123 | 44.5 | 43 | 131 | −3.22 | 28.09 | 56.78 | 152.1 | 83.62 | 88.46 | 6.38 | 41.7 | 123 | 83.7 | 43 | 131 | > 10 | EC50 (US28 receptor; [2]): > 10 µM; IC50 (CHO cells; read-out: CHO 48 h IC50 value (μM)): > 100 µM
COc1ccc(Br)cc1-c1cc(=O)c2c(O)cccc2o1 [Compound 12b, 2-(5-Bromo-2-methoxyphenyl)-5-hydroxy-4H-chromen-4-one] | 75.2 ± 8.7 | -8.84 | -2.4 | -3.2 | 34.9 | 10.4 | 49.1 | −7.32 | 0.82 | −1.73 | 445.1 | 27.57 | 36.35 | -8.84 | -2.4 | -3.2 | 52.4 | 10.4 | 49.1 | > 10 | EC50 (US28 receptor; [2]): > 10 µM
